Data reported in patent US5198445A, “Composition and use of substituted 3-thio-2-propynenitriles as industrial antimicrobials” (The Dow Chemical Company, priority 1992, dated 1993).
In brackets after ≈: the same amount, converted by molar mass. Where two headings read alike, the source gives them in different places.

Tests used:
[1] = tested on: Klebsiella pneumoniae (Kp); experiment: MIC in nutrient agar, Klebsiella pneumoniae; assay type: cell-based, Klebsiella pneumoniae ATCC 8308
Description: (§1) The minimum inhibitory concentration (MIC) for the compounds listed in Table I is determined for 9 bacteria, using nutrient agar, and 7 yeast and fungi, using malt yeast agar. A one percent solution of the test compound is prepared in a mixture of acetone and water. Nutrient agar is prepared at pH 6.8, representing a neutral medium, and at pH 8.2, representing an alkaline medium. The nutrient agars are prepared by adding 23 g of nutrient agar to one-liter of deionized water. In addition, the alkaline medium is prepared by adjusting a 0.04M solution of N-[tris-(hydroxymethyl)methyl]-glycine buffered deionized water with concentrated sodium hydroxide to a pH of […]. Malt yeast agar is prepared by adding 3 g yeast extract and 45 g malt agar per liter of deionized water. The specific agar is dispensed in 30 ml aliquots into 25×200 mm test tubes, capped and autoclaved for 15 minutes at 115° C. The test tubes containing the agar are cooled in a water bath until the temperature of the agar is 48° C. Then, an appropriate amount of the one percent solution of the test compound is added (except in the controls where no compound is added) to the respective test tubes so that the final concentrations are 500, 250, 100, 50, 25, 10, 5, 2.5, 1.0 and zero parts per million of the test compound in the agar, thus having a known concentration of test compound dispersed therein. The contents of the test tubes are then transferred to respective petri plates. After drying for 24 hours, the petri plates containing nutrient agar are inoculated with bacteria and those containing malt yeast agar are inoculated with yeast and fungi.
(§2) The inoculation with bacteria is accomplished by using the following procedure. Twenty-four hour-cultures of each of the bacteria are prepared by incubating the respective bacteria in tubes containing nutrient broth for 24 hours at 30° C. in a shaker. Dilutions of each of the 24 hour-cultures are made so that nine separate suspensions (one for each of the nine test bacteria) are made, each containing 10^8 colony forming units (CFU) per ml of suspension of a particular bacteria. Aliquots of 0.3 ml of each of the bacterial suspensions are used to fill the individual wells of Steer's Replicator. For each microbial suspension, 0.3 ml was used to fill three wells (i.e., three wells of 0.3 ml each) so that for the nine different bacteria, 27 wells are filled. The Steer's Replicator is then used to inoculate both the neutral and alkaline pH nutrient agar petri plates.
(§3) The inoculated petri plates are incubated at 30° C. for 48 hours and then read to determine if the test compound which is incorporated into the agar prevented growth of the respective bacteria.
(§4) Table II lists the bacteria, yeast and fungi used in the MIC test described above along with their respective American Type Culture Collection (ATCC) identification numbers.
(§5) The following MIC and MEC antimicrobial tests, whose results are shown in Tables XIII-XVII, are performed using the same methods as described hereinabove.

[2] = tested on: mixture of the bacterial organisms listed in Table II; experiment: MEC in tape joint formulation after 3 months storage; assay type: cell-based, bacteria listed in Table II; conditions: 2190 h, pH between 5 and 7, after 3 months storage at room temperature
Description: (§6) The formulations are separated into 50 g aliquots and placed in sterile bottles. An appropriate amount of a fresh one percent stock solution of the test compound in acetone-water is added to achieve the desired final concentrations. A small portion of each of the test formulations is streaked onto Tryptic Soy Agar (TSA) petri plates using sterile cotton swabs to ensure that the formulations are sterile. If the formulation is sterile, then it is inoculated with 0.1 ml of a mixture of equal aliquots of the 24 hour cultures of each of the bacterial organisms listed in Table II. The test formulations are then incubated at 30° C. After 24 hours, each sample is streaked onto a TSA petri plate using a sterile swab. All plates are then incubated at 30° C. for 48 hours and then rated for microbial growth using the rating system listed in Table VIII. Samples with a rating of 3 or less are reinoculated as described in the procedure for the first inoculation. Samples with a rating of 4 or greater are not reinoculated but after another 24 hours are restreaked on TSA agar.
(§7) The normal interpretation of the results is that a concentration of the antimicrobial being tested is considered to be effective if no ratings greater than a 3 are observed throughout the 10 challenges. […]

[3] = tested on: mixture of the bacterial organisms listed in Table II; experiment: MEC in paint formulation after 1 month storage; assay type: cell-based, bacteria listed in Table II; conditions: 730 h, pH between 7 and 9, after 1 month storage at room temperature
Description: as §6, §7

[4] = tested on: Pseudomonas aeruginosa (Pa); experiment: MIC in nutrient agar, Pseudomonas aeruginosa; assay type: cell-based, Pseudomonas aeruginosa ATCC 10145
Description: as §1, §2, §3, §4, §5

[5] = Stability of 3-thio-2-propynenitriles at pH 7 or above / in basic solution; assay type: physicochemical; conditions: basic solution / pH of 7 or above
Description: It has also been discovered that the compounds of the present invention may degrade at a pH of 7 or above over an extended time period to compounds which are less antimicrobially active than the original compounds of the present invention.

[6] = pH 6.8, read-out: Minimum Inhibitory Concentration, Kp
[7] = pH 8.2, read-out: Minimum Inhibitory Concentration, Kp
[8] = pH 8.2, read-out: Minimum Inhibitory Concentration, Pa

| Structure (SMILES) | MIC [1, 6] | MIC [1, 7] | minimal effective concentration [2] | minimal effective concentration [3] | MIC [4, 8] | stability [5] | MIC ([4]; pH 6.8, read-out: Minimum Inhibitory Concentration, Pa) |
| --- | --- | --- | --- | --- | --- | --- | --- |
| CCSC#CC#N [B, 3-ethylthio-2-propynenitrile] | 5 µg/mL (≈ 45 µM) | 5 µg/mL (≈ 45 µM) |  |  |  |  |  |
| N#CC#CSC1CCCC1 [C, 3-cyclopentylthio-2-propynenitrile] | < 10 µg/mL | 25 µg/mL (≈ 165 µM) |  |  |  |  |  |
| CSC#CC#N [Compound A, 3-methylthio-2-propynenitrile] | 2.5 µg/mL (≈ 25.7 µM) | 10 µg/mL (≈ 103 µM) | > 50 µg/mL | > 50 µg/mL | 2.5 µg/mL (≈ 25.7 µM) | observed to decompose in a basic solution to several compounds |  |
| CSC=C(Cl)C#N [Compound G, 2-chloro-3-(methylthio)-2-propenenitrile] | 50 µg/mL (≈ 374 µM) | 10 µg/mL (≈ 74.8 µM) | > 50 µg/mL |  | 5 µg/mL (≈ 37.4 µM) |  | 50 µg/mL (≈ 374 µM) |
| N#CC#CSc1ccc(Cl)cc1 [D, 3-(4-chlorophenylthio)-2-propynenitrile] | < 10 µg/mL | 50 µg/mL (≈ 258 µM) |  |  |  |  |  |
